# Laboratory results as given in patent publication US12060355B2, “Compounds for use in the treatment of fascioliasis” (Merck Patent GmbH, priority 2018, dated 2024).
# Test system: human HepG2 cell lines
# Type: cell-based
# Conditions: human HepG2 cell line
row,SMILES,Cytotox HepG2
1,"CC(C)c1nc2cnc(-c3ccc(F)c(C(F)(F)F)c3)cn2c1-c1ccc2[nH]ncc2c1F [Example 2, 4-fluoro-5-{6-[4-fluoro-3-(trifluoromethyl)phenyl]-2-(propan-2-yl)imidazo[1,2-a]pyrazin-3-yl}-1H-indazole]",10.4 µM
2,"Cc1nc2cnc(-c3cccc(C(F)(F)F)c3)cn2c1-c1c(F)cc(O)cc1F [Example 15, 3,5-difluoro-4-[2-methyl-6-[3-(trifluoromethyl)phenyl]imidazo[1,2-a]pyrazin-3-yl]phenol]",8.4 µM
3,"Cc1nc2cnc(-c3ccc(F)c(C(F)(F)F)c3)cn2c1-c1c(F)cc(O)cc1F [Example 16, 3,5-difluoro-4-[2-methyl-6-[4-fluoro-3-(trifluoromethyl)phenyl]imidazo[1,2-a]pyrazin-3-yl]phenol]",7.6 µM
4,"CC(C)c1nc2cnc(-c3cccc(C(F)(F)F)c3)cn2c1-c1c(F)cc(O)cc1F [Example 19, 3,5-difluoro-4-[2-(propan-2-yl)-6-[3-(trifluoromethyl)phenyl]imidazo[1,2-a]pyrazin-3-yl]phenol]",7.5 µM
5,"CC(C)c1nc2cnc(-c3cccc(C(F)(F)F)c3)cn2c1-c1ccc2[nH]ncc2c1F [Example 21, 4-fluoro-5-{2-propan-2-yl-6-[3-trifluoromethylphenyl]imidazo[1,2-a]pyrazin-3-yl}-1H-indazole]",15.1 µM
6,"CC(C)c1nn2cnc(-c3cccc(C(F)(F)F)c3)cc2c1-c1c(F)cc(O)cc1F [Example 24, 3,5-difluoro-4-(2-isopropyl-5-(3-(trifluoromethyl)phenyl)pyrazolo[1,5-c]pyrimidin-3-yl)phenol]",8.4 µM
7,"Fc1c(-c2c(C(F)(F)F)nc3cnc(-c4cccc(C(F)(F)C(F)(F)F)c4)cn23)ccc2[nH]ncc12 [Example 29, 4-fluoro-5-{2-trifluoromethyl-6-[3-(pentafluoroethyl)phenyl]imidazo[1,2-a]pyrazin-3-yl}-1H-indazole]",8.9 µM
8,"COc1ccc(-c2c(C(F)(F)F)nc3cnc(-c4cccc(C(F)(F)C(F)(F)F)c4)cn23)cc1O [Example 30, 2-methoxy-5-[2-(trifluoromethyl)-6-[3-(pentafluoroethyl)phenyl]imidazo[1,2-a]pyrazin-3-yl]phenol]",11.1 µM
9,"Fc1ccc(-c2cn3c(-c4ccc5[nH]ncc5c4F)c(C4CC4)nc3cn2)cc1C(F)(F)F [Example 32, 4-fluoro-5-{2-cyclopropyl-6-[4-fluoro-3-(trifluoromethyl)phenyl]imidazo[1,2-a]pyrazin-3-yl}-1H-indazole]",16.1 µM
10,"CC1(c2nc3cnc(-c4ccc(F)c(C(F)(F)F)c4)cn3c2-c2c(F)cc(O)cc2F)CC1 [Example 33, 3,5-difluoro-4-[2-(1-methyl-cycloprop-1-yl)-6-[4-fluoro-3-(trifluoromethyl)phenyl]imidazo[1,2-a]pyrazin-3-yl]phenol]",7.9 µM
11,"Oc1cc(F)c(-c2c(C3CC3)nc3cnc(-c4ccc(F)c(C(F)(F)F)c4)cn23)c(F)c1 [Example 34, 4-(2-cyclopropyl-6-(4-fluoro-3-(trifluoromethyl)phenyl)imidazo[1,2-a]pyrazin-3-yl)-3,5-difluorophenol]",8.9 µM
12,"Oc1cc(F)c(-c2c(C3CCC3)nc3cnc(-c4ccc(F)c(C(F)(F)F)c4)cn23)c(F)c1 [Example 35, 4-(2-cyclobutyl-6-(4-fluoro-3-(trifluoromethyl)phenyl)imidazo[1,2-a]pyrazin-3-yl)-3,5-difluorophenol]",5.7 µM
13,"CCc1nc2cnc(-c3ccc(F)c(C(F)(F)F)c3)cn2c1-c1c(F)cc(O)cc1F [Example 36, 3,5-difluoro-4-[2-ethyl-6-[4-fluoro-3-(trifluoromethyl)phenyl]imidazo[1,2-a]pyrazin-3-yl]phenol]",8.3 µM
14,"CCc1nc2cnc(-c3ccc(F)c(C(F)(F)F)c3)cn2c1-c1ccc2[nH]ncc2c1F [Example 37, 4-fluoro-5-{2-ethyl-6-[4-fluoro-3-(trifluoromethyl)phenyl]imidazo[1,2-a]pyrazin-3-yl}-1H-indazole]",13.1 µM
15,"CC(C)c1nc2cnc(-c3cccc(S(F)(F)(F)(F)F)c3)cn2c1-c1c(F)cc(O)cc1F [Example 39, 3,5-difluoro-4-[2-(propan-2-yl)-6-[3-(pentafluorosulfanyl)phenyl]imidazo[1,2-a]pyrazin-3-yl]phenol]",6.6 µM
16,"Fc1c(-c2c(C3CC3)nc3cnc(-c4cccc(S(F)(F)(F)(F)F)c4)cn23)ccc2[nH]ncc12 [Example 46, 2-cyclopropyl-3-(4-fluoro-1H-indazol-5-yl)-6-(3-(pentafluoro-λ6-sulfaneyl)phenyl)imidazo[1,2-a]pyrazine]",20.7 µM
17,"CCc1nn2cnc(-c3ccc(F)c(C(F)(F)F)c3)cc2c1-c1c(F)cc(O)cc1F [Example 48, 4-(2-ethyl-5-(4-fluoro-3-(trifluoromethyl)phenyl)pyrazolo[1,5-c]pyrimidin-3-yl)-3,5-difluorophenol]",9.8 µM

row,SMILES,Cytotox HepG2
1,"Cc1nc2cnc(-c3cccc(C(F)(F)C(F)(F)F)c3)cn2c1-c1c(F)cc(O)cc1F [Example 49, 3,5-difluoro-4-[2-methyl-6-[3-(pentafluoroethyl)phenyl]imidazo[1,2-a]pyrazin-3-yl]phenol]",9.3 µM
2,"CCc1nc2cnc(-c3cccc(C(F)(F)C(F)(F)F)c3)cn2c1-c1c(F)cc(O)cc1F [Example 52, 4-[2-Ethyl-6-(3-pentafluoroethyl-phenyl)-imidazo[1,2-a]pyrazin-3-yl]-3,5-difluoro-phenol]",8.0 µM
3,"Cc1nc2cnc(-c3ccc(F)c(C(F)(F)C(F)(F)F)c3)cn2c1-c1c(F)cc(O)cc1F [Example 53, 3,5-Difluoro-4-[6-(4-fluoro-3-pentafluoroethyl-phenyl)-2-methyl-imidazo[1,2-a]pyrazin-3-yl]-phenol]",8.8 µM
4,"Oc1cc(F)c(-c2c(C3CC3)nc3cnc(-c4ccc(F)c(S(F)(F)(F)(F)F)c4)cn23)c(F)c1 [Example 56, 4-[2-Cyclopropyl-6-(4-fluoro-3-pentafluorosulfanyl-phenyl)-imidazo[1,2-a]pyrazin-3-yl]-3,5-difluoro-phenol]",10.1 µM
5,"Fc1ccc(-c2cn3c(-c4ccc5[nH]ncc5c4F)c(C4CC4)nc3cn2)cc1S(F)(F)(F)(F)F [Example 57, 2-Cyclopropyl-3-(4-fluoro-1H-indazol-5-yl)-6-(4-fluoro-3-pentafluorosulfanyl-phenyl)-imidazo[1,2-a]pyrazine]",14.8 µM
6,"CC(C)c1nn2cnc(-c3ccc(F)c(C(F)(F)C(F)(F)F)c3)cc2c1-c1ccc2[nH]ncc2c1F [Example 58, 3-(4-Fluoro-1H-indazol-5-yl)-5-(4-fluoro-3-pentafluoroethyl-phenyl)-2-isopropyl-pyrazolo[1,5-c]pyrimidine]",10.8 µM
7,"Fc1ccc(-c2cn3c(-c4ccc5[nH]ncc5c4F)c(C(F)(F)F)nc3cn2)cc1C(F)(F)C(F)(F)F [Example 63, 3-(4-Fluoro-1H-indazol-5-yl)-6-(4-fluoro-3-pentafluoroethyl-phenyl)-2-trifluoromethyl-imidazo[1,2-a]pyrazine]",11.7 µM
8,"Fc1ccc(-c2cn3c(-c4ccc5[nH]ncc5c4F)c(C(F)(F)F)nc3cn2)cc1S(F)(F)(F)(F)F [Example 65, 3-(4-Fluoro-1H-indazol-5-yl)-6-(4-fluoro-3-pentafluorosulfanyl-phenyl)-2-trifluoromethyl-imidazo[1,2-a]pyrazine]",11.1 µM
9,"CC(C)c1cccc(-c2cn3c(-c4ccc5[nH]ncc5c4F)c(C(F)(F)F)nc3cn2)c1 [Example 66, 3-(4-Fluoro-1H-indazol-5-yl)-6-(3-isopropyl-phenyl)-2-trifluoromethyl-imidazo[1,2-a]pyrazine]",12.9 µM
10,"CC(C)c1cc(-c2cn3c(-c4ccc5[nH]ncc5c4F)c(C(F)(F)F)nc3cn2)ccc1F [Example 67, 3-(4-Fluoro-1H-indazol-5-yl)-6-(4-fluoro-3-isopropyl-phenyl)-2-trifluoromethyl-imidazo[1,2-a]pyrazine]",17.0 µM
11,"Fc1ccc(-c2cn3c(-c4ccc5[nH]ncc5c4F)c(C(F)(F)F)nc3cn2)cc1CC(F)(F)F [Example 69, 3-(4-Fluoro-1H-indazol-5-yl)-6-[4-fluoro-3-(2,2,2-trifluoro-ethyl)-phenyl]-2-trifluoromethyl-imidazo[1,2-a]pyrazine]",5.3 µM
12,"Fc1ccc(-c2cn3c(-c4ccc5[nH]ncc5c4F)c(C(F)(F)F)nc3cn2)cc1OC(F)(F)F [Example 71, 3-(4-Fluoro-1H-indazol-5-yl)-6-(4-fluoro-3-trifluoromethoxy-phenyl)-2-trifluoromethyl-imidazo[1,2-a]pyrazine]",12.2 µM
13,"Fc1c(-c2c(C(F)(F)F)nc3cnc(-c4cccc(OC(F)(F)F)c4)cn23)ccc2[nH]ncc12 [Example 72, 3-(4-Fluoro-1H-indazol-5-yl)-6-(3-trifluoromethoxy-phenyl)-2-trifluoromethyl-imidazo[1,2-a]pyrazine]",9.7 µM
14,"CC(C)c1cc(-c2cn3c(-c4ccc5[nH]ncc5c4F)c(C(C)C)nc3cn2)ccc1F [Example 74, 3-(4-Fluoro-1H-indazol-5-yl)-6-(4-fluoro-3-isopropyl-phenyl)-2-isopropyl-imidazo[1,2-a]pyrazine]",11.0 µM
15,"CCc1nc2cnc(-c3ccc(F)c(C(C)C)c3)cn2c1-c1ccc2[nH]ncc2c1F [Example 75, 2-Ethyl-3-(4-fluoro-1H-indazol-5-yl)-6-(4-fluoro-3-isopropyl-phenyl)-imidazo[1,2-a]pyrazine]",11.3 µM
16,"CC(C)c1cc(-c2cn3c(-c4ccc5[nH]ncc5c4F)c(C4CCC4)nc3cn2)ccc1F [Example 77, 2-Cyclobutyl-3-(4-fluoro-1H-indazol-5-yl)-6-(4-fluoro-3-isopropyl-phenyl)-imidazo[1,2-a]pyrazine]",10.8 µM
